The source of these data is patent publication US20230270871A1, “MARKERS FOR USE IN METHODS FOR TREATING CANCERS WITH ANTIBODY DRUG CONJUGATES (ADC)” (AGENSYS, INC., priority 2020, published 2023).

The test system of test [1] is phospho-JNK. The test is described as follows: Phospho-JNK western blot. The class given is cell-based. Particulars: FIG. 9C. How it is done:
T-24 Nectin-4 (clone1A9) cells were treated with an anti-nectin-4 ADC (AGS-22C3E) for 48 hours and stained with β-tubulin for microtubules and DAPI, a nuclear DNA stain. FIGS. 9B and 9C depict activation of phospho-INK in response to the treatment with an anti-nectin-4 ADC (AGS-22C3E). In FIG. 9B, western blots show an increase in phospho-JNK over a period of 48 hours upon treatment with an anti-nectin-4 ADC (AGS-22C3E) at 1 ug/mL). In FIG. 9C, Phosphorylation of JNK is observed in treatment with an anti-nectin-4 ADC (AGS-22C3E) and MMAE but absent in untreated or non-binding ADC control.
A general note: A western blot detects proteins with antibodies after separation by electrophoresis.

In test [2] the test system is phospho-JNK. The experiment in a line: ER stress, phospho-JNK activation. It is filed as cell-based.
The test system of the next test is T-24-Nectin-4 cells. The experiment in a line: ICD cell surface markers (calreticulin, HSP70). It is filed as cell-based, human. Particulars: anti-nectin-4 ADC 1 ug/mL, MMAE 100 nM, compared with untreated or control hIgG-MMAE (1 mg/mL). The text has this:
FIG. 4A is a cartoon representation of the release of ATP and HMGB1 by cells treated with an anti-nectin-4 ADC and the effects of the released ATP and HMGB1 on macrophages. FIG. 4B is a cartoon representation of the release of ATP and HMGB1 by cells treated with an anti-nectin-4 ADC, the activation of the immune cells by the ATP and HMGB1, and the potential immunogenic cell death or immunogenic cell killing by the activated immune cells. FIG. 4C depicts ATP release in control T-24 cells and T-24 cells expressing nectin-4 after various treatments as indicated. FIG. 4D depicts ATP release in control UM-UC-3 cells and UM-UC-3 cells expressing nectin-4 after various treatments as indicated. FIG. 4E depicts HMGB1 release in control T-24 cells and T-24 cells expressing nectin-4 after various treatments as indicated. FIGS. 4F and 4G depict cell surface calreticulin (4F) and HSP70 (4G), respectively, in cells upon various treatments as indicated. Increase in ICD cell surface markers such as calreticulin or HSP70 can be detected on T-24-Nectin-4 cells upon treatment with an anti-nectin-4 ADC (1 ug/mL) or MMAE (100 nM) compared with untreated or treatment with the control hIgG-MMAE (1 mg/mL). In FIGS. 4C to 4G, EV and AGS-22C3E indicate the same anti-nectin-4 ADC.

In test [3] the test system is acute myeloid leukemia (AML) at relapse. Particulars: administered alone; cited from earlier work.
A further test deals with T1, human Nectin-4 (human, UniProt Q96NY8 32-510).
T1 sequence: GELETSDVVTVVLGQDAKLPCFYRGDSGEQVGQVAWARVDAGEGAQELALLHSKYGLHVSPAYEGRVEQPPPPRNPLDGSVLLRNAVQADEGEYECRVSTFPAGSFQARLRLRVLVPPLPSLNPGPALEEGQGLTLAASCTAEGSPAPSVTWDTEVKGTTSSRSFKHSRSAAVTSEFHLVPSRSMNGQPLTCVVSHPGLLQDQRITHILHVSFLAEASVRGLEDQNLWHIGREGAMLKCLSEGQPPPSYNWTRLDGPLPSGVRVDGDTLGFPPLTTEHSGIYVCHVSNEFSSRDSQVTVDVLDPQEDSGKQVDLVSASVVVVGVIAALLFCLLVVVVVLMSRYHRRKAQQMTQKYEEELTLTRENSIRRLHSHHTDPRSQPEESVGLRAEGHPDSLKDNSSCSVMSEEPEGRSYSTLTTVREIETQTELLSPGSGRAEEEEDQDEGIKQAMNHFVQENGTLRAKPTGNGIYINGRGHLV
The test is described as follows: cell-based or functional assay.

Where a SMILES comes first, the peptide text is derived from it. [ ]: non-standard residue; d: D form. The star is where a group is joined. Dolaproine = CO[C@@H]([C@@H]1CCCN1)[C@@H](C)C(=O)O; Dil = CC[C@H](C)[C@H](NC)[C@@H](CC(=O)O)OC; X1 = C[C@@H](N*)[C@@H](O)c1ccccc1; NMeV = CN[C@H](C(=O)O)C(C)C

Regarding `CC[C@H](C)[C@@H]([C@@H](CC(=O)N1CCC[C@H]1[C@H](OC)[C@@H](C)C(=O)N[C@H](C)[C@@H](O)c1ccccc1)OC)N(C)C(=O)[C@@H](NC(=O)[C@@H](NC)C(C)C)C(C)C` [MMAE, monomethyl auristatin E] (H-[NMeV]V[Dil][Dolaproine]-X1), the “phosphorylation of JNK” value in the test on phospho-JNK [1] was “observed”. Further, the phospho-JNK activation result in the test with phospho-JNK [2] was “activates phospho-JNK”. Besides, the “cell surface calreticulin (ICD marker)” value with T-24-Nectin-4 cells (FIG. 4F) is reported as “Increase”. The “cell surface HSP70 (ICD marker)” value in the test with T-24-Nectin-4 cells (FIG. 4G) was “Increase”.
Take “CT-011: anti-PD-1 antibody, a humanized antibody”: the “response in AML at relapse” value in test [3] is “failed to show response”.

B1: enfortumab vedotin (antibody, human IgG1, kappa, V domains shown)
VH: EVQLVESGGGLVQPGGSLRLSCAASGFTFSSYNMNWVRQAPGKGLEWVSYISSSSSTIYYADSVKGRFTISRDNAKNSLSLQMNSLRDEDTAVYYCARAYYYGMDVWGQGTTVTVSS
VL: DIQMTQSPSSVSASVGDRVTITCRASQGISGWLAWYQQKPGKAPKFLIYAASTLQSGVPSRFSGSGSGTDFTLTISSLQPEDFATYYCQQANSFPPTFGGGTKVEIKR
modifications: MMAE conjugated via a protease-cleavable maleimidocaproyl valine-citrulline (vc) linker on cysteine residues that comprise the interchain disulfide bonds; drug-to-antibody ratio approximately 3.8:1
On to B1, for which, in the test with human Nectin-4, the “Enfortumab vedotin Cytotoxicity IC50 (T-24 Nectin-4 Clone 1A9 cells; cell viability by CELL TITER-GLO 120 hours post-treatment)” value stood at 0.085 µg/mL and the “Enfortumab vedotin Cytotoxicity IC50 (UM-UC-3 Nectin-4 Clone 1D11 cells; cell viability by CELL TITER-GLO 120 hours post-treatment)” value was 0.006 µg/mL.
